Where two headings read alike, the source gives them in different places. Bridge positions count the residues as written; N and C are the ends. Peptide text beside a SMILES is read from it.
Columns and labels:
[1] = molecular target: T1, rat ROMK (Rattus norvegicus, UniProt P35560); test: Whole-cell patch-clamp of ROMK currents in 208–4 cells; assay type: cell-based; conditions: for inhibition at 1 µM: blockade at 1 μM estimated from fitted Hill curve (four parameters), n = 3–6, read-out: Activity (ROMK channel blocking activity, percentage of blockade at 1 μM); for IC50: 25°C
T1 construct: expressed in transfected cells; host or cells: 293T cell line 208-4 (lentiviral transduction, GFP coexpressed)
T1 sequence (P35560 1-391): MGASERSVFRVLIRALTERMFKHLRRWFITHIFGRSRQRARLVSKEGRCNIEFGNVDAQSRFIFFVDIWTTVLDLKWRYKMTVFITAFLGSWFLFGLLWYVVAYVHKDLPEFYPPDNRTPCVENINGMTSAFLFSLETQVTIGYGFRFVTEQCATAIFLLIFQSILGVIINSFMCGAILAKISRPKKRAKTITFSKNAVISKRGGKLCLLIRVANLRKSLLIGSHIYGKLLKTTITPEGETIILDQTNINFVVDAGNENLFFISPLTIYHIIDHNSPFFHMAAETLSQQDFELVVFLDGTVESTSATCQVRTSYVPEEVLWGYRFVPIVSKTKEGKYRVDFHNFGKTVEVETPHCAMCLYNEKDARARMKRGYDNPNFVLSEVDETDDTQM
Outline: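 ROMK stably expressed in 208–4 cells; GIRK transiently in 293T, recorded 24 h post-transfection; 25°C, Tyrode (high-K+ 50 mM for GIRK), K-aspartate/KCl pipette with 3 mM MgATP. Steps −150 to 10 mV from −70 mV; currents 60 s after peptide; conductance from I-V slope −140 to −100 mV, Ba2+-resistant current subtracted, normalized to 0 μM TPN.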

[2] = test system: Male ICR mice; test: Forced swim test (FST); assay type: in vivo, mouse; conditions: i.c.v., 30 min before test, last 4 min of 6 min
Protocol: We performed mouse behavioral experiments in accordance with our previous study. Male ICR mice (n = 199 in total) aged 5 weeks old were purchased from Shimizu Laboratory Supplies (Kyoto, Japan) and maintained in an animal facility for 7–12 days. They had free access to food and water and were kept in a 12-h light/dark cycle (08:00–20:00). Experiments were carried out between 11:00 and 17:00 in a quiet and air-conditioned experimental room, to which mice were habituated for 30–60 min before each experiment. Animal experiments were performed in accordance with the guidelines of the Physiological Society of Japan and were approved by the Committee for Animal Experiments of Kurashiki University of Science and the Arts. Peptides were dissolved in phosphate-buffered saline (PBS). Peptides were injected intracerebroventricularly (i.c.v.) 30 min before behavioral tests (typically 5 μL/mouse), according to a previous study. The mouse was placed into an anesthetizing jar, to which isoflurane (0.2 mL) was added immediately before. […]
The forced swim test (FST) was performed in accordance with the method reported previously. […] The mouse was allowed to swim for 6 min and its activity was measured. […]

[3] = test system: Male ICR mice; test: Open field test (OFT); assay type: in vivo, mouse; conditions: i.c.v., 5 min
Protocol: We performed mouse behavioral experiments in accordance with our previous study. Male ICR mice (n = 199 in total) aged 5 weeks old were purchased from Shimizu Laboratory Supplies (Kyoto, Japan) and maintained in an animal facility for 7–12 days. They had free access to food and water and were kept in a 12-h light/dark cycle (08:00–20:00). Experiments were carried out between 11:00 and 17:00 in a quiet and air-conditioned experimental room, to which mice were habituated for 30–60 min before each experiment. Animal experiments were performed in accordance with the guidelines of the Physiological Society of Japan and were approved by the Committee for Animal Experiments of Kurashiki University of Science and the Arts. Peptides were dissolved in phosphate-buffered saline (PBS). Peptides were injected intracerebroventricularly (i.c.v.) 30 min before behavioral tests (typically 5 μL/mouse), according to a previous study. The mouse was placed into an anesthetizing jar, to which isoflurane (0.2 mL) was added immediately before. After confirming that the mouse was deeply anesthetized we injected the peptide into the right cerebral ventricle over 30 seconds and the injection needle was kept for 1 min after the injection (i.c.v. coordinates: 0 mm caudal to bregma, 1.0 mm lateral to the midline, and 3.5 mm below the skull). The mouse was placed in a cage set on a heating pad (approximately 33°C) for a few minutes until it spontaneously started to move, and then it was put back into its home cage. Each animal was used only once, except for the wheel running test, which was carried out immediately after the elevated plus-maze.
The open-field test (OFT) was performed in accordance with a previous report. The open-field consisted of a square (90 × 90 cm), in which the floor was divided into 16 equal squares. After a mouse was placed in a corner of the open field facing the wall, the number of the entries into the central squares and whole line crossings were counted for 5 min. After the removal of the animal, the apparatus was cleaned and wiped.

[4] = Chemical stability in mouse serum by HPLC; assay type: in vitro ADME; conditions: 33.0 μM peptide mixed with equal volume of mouse serum, 37°C, 30 min; cation-exchange HPLC (HiTrap-SP), A230 nm
Protocol: For the examination of the chemical stability, the peptide was analyzed with high-performance liquid chromatography (HPLC, JASCO, Tokyo, Japan) using a cation-exchange column (HiTrap-SP, Cytiva). TPN-RQ 33.0 μM, which was mixed with an equal volume of PBS or mouse serum, was analyzed with HPLC immediately after mixing or after incubation at 37°C for 30 min. Peptides were eluted with a gradient of NaCl from 200 to 2,000 mM in 10 mM Tris-HCl (pH 7.4), monitoring A230 nm with a UV detector (JASCO).

SMILES | inhibition at 1 µM ([1]; whole-cell conductance) [%] | immobile time in FST [2] | entries to the central area in OFT [3] | number of total line crossings in OFT [3] | central line crossings in OFT ([3]; n = 6 and 7) | IC50 ([1]; peptide pre-treated with protein disulfide isomerase, 30 min, n = 4 (Fig 2F), read-out: IC50, ROMK current, PDI-treated peptide) [nM] | IC50 ([1]; whole-cell conductance, 60 sec after application, n = 3 (Fig 2E), read-out: IC50, ROMK current) [nM] | chemical stability in mouse serum (HPLC peak height and retention time) [4]
CC[C@H](C)[C@@H]1NC(=O)[C@H](CCCNC(=N)N)NC(=O)[C@H](CC(N)=O)NC(=O)[C@@H]2CSSC[C@@H](C(=O)NCC(=O)N[C@@H](CCCCN)C(=O)N[C@@H](CCCCN)C(N)=O)NC(=O)[C@H](CCCCN)NC(=O)[C@H](CCCCN)NC(=O)[C@H](Cc3c[nH]c4ccccc34)NC(=O)[C@H](CSSC[C@H](NC(=O)[C@H](CC(C)C)NC(=O)[C@H](C)N)C(=O)N[C@@H](CC(N)=O)C(=O)N2)NC(=O)[C@H](CCC(N)=O)NC(=O)[C@H](CC(C)C)NC(=O)[C@@H]2CCCN2C(=O)[C@H]([C@@H](C)CC)NC(=O)[C@H]([C@@H](C)CC)NC1=O [Peptide 3, TPN-LQ] (H-ALCNCNRIIIPLQCWKKCGKK-NH2; disulfide 3-14, 5-18; N-terminus and C-terminus assumed) | 60 to 80 | decreased the immobile time | decreased | decreased | decreased |  |  | 
CC[C@H](C)[C@@H]1NC(=O)[C@H](CCCNC(=N)N)NC(=O)[C@H](CCCNC(=N)N)NC(=O)[C@H](CC(N)=O)NC(=O)[C@@H]2CSSC[C@@H](C(=O)NCC(=O)N[C@@H](CCCCN)C(=O)N[C@@H](CCCCN)C(N)=O)NC(=O)[C@H](CCCCN)NC(=O)[C@H](CCCCN)NC(=O)[C@H](Cc3c[nH]c4ccccc34)NC(=O)[C@H](CSSC[C@H](NC(=O)[C@H](CC(C)C)NC(=O)[C@H](C)N)C(=O)N[C@@H](CC(N)=O)C(=O)N2)NC(=O)[C@H](CCC(N)=O)NC(=O)[C@H](Cc2c[nH]cn2)NC(=O)[C@@H]2CCCN2C(=O)[C@H]([C@@H](C)CC)NC1=O [Peptide 2, TPN-RQ] (H-ALCNCNRRIIPHQCWKKCGKK-NH2; disulfide 3-14, 5-18) | > 80 |  |  |  |  | 240 | 170 | No changes in the peak height or retention time

— article PMC7665585, “Antidepressive effect of an inward rectifier K^+ channel blocker peptide, tertiapin-RQ” (PLoS ONE, 2020)
